# Results as given in the supplement of paper PMC6045584.
# ± gives the standard deviation of the averaged measurements.
# Key:
# METHOTREXATE = compound: CN(Cc1cnc2nc(N)nc(N)c2n1)c1ccc(C(=O)N[C@@H](CCC(=O)O)C(=O)O)cc1 [METHOTREXATE]; assay: surviving fraction relative to DMSO-only wells; higher = less growth inhibition; conditions: exposure time: 5 days
# How it was run: (§1)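 Inhibitors were tested at 0.5, 1, 5, 10, 50, 100, 500 and 1000 nM, applied continuously for five days beginning 24 hours after log-phase tumour cells were seeded at 250–500 per well in 384-well plates. CellTiter-Glo luminescence served as the viability measure, expressed as surviving fraction against the median of DMSO-only wells. Each line, screened three times, was kept only with replicate Pearson r >0.7 and median Z' >0.3.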
# PLX-4720 = compound: CCCS(=O)(=O)Nc1ccc(F)c(C(=O)c2c[nH]c3ncc(Cl)cc23)c1F [PLX-4720]; assay: as above; conditions: exposure time: 5 days
# How it was run: as §1
Test System,surviving fraction (METHOTREXATE; 0.5 nM),surviving fraction (METHOTREXATE; 1 nM),surviving fraction (METHOTREXATE; 5 nM),surviving fraction (METHOTREXATE; 10 nM),surviving fraction (METHOTREXATE; 50 nM),surviving fraction (METHOTREXATE; 100 nM),surviving fraction (METHOTREXATE; 500 nM),surviving fraction (METHOTREXATE; 1000 nM),surviving fraction (PLX-4720; 0.5 nM),surviving fraction (PLX-4720; 1 nM),surviving fraction (PLX-4720; 5 nM),surviving fraction (PLX-4720; 10 nM),surviving fraction (PLX-4720; 50 nM),surviving fraction (PLX-4720; 100 nM),surviving fraction (PLX-4720; 500 nM),surviving fraction (PLX-4720; 1000 nM)
SG27 HEADNECK,1.1 ± 0.043,1.15 ± 0.15,1.09 ± 0.13,0.944 ± 0.15,1.07 ± 0.034,1.25 ± 0.021,1.12 ± 0.12,1.17 ± 0.07,0.659 ± 0.094,0.877 ± 0.1,0.962 ± 0.077,0.965 ± 0.12,0.788 ± 0.12,0.942 ± 0.11,0.928 ± 0.1,0.955 ± 0.1
SG28 HEADNECK,1.06 ± 0.059,1.06 ± 0.02,1.07 ± 0.09,1.14 ± 0.088,1.04 ± 0.017,1.12 ± 0.087,1.123 ± 0.011,0.976 ± 0.084,0.279 ± 0.033,0.796 ± 0.12,0.718 ± 0.057,0.849 ± 0.082,0.513 ± 0.014,0.964 ± 0.027,0.818 ± 0.11,0.959 ± 0.036
SG31 HEADNECK,1.14 ± 0.19,1.21 ± 0.037,1.07 ± 0.1,1.31 ± 0.22,1.16 ± 0.2,1.18 ± 0.19,1.26 ± 0.2,1.21 ± 0.024,0.492 ± 0.037,0.775 ± 0.056,0.765 ± 0.053,0.96 ± 0.18,0.642 ± 0.068,0.843 ± 0.048,0.963 ± 0.025,1.06 ± 0.12
SG32 HEADNECK,0.946 ± 0.11,1.5 ± 0.84,1.19 ± 0.16,1.25 ± 0.34,0.899 ± 0.039,1.02 ± 0.2,1.1 ± 0.14,0.954 ± 0.078,0.341 ± 0.11,0.617 ± 0.029,0.494 ± 0.06,0.742 ± 0.094,0.366 ± 0.042,0.804 ± 0.079,0.623 ± 0.16,0.821 ± 0.035
SG43 HEADNECK,0.924 ± 0.046,1.01 ± 0.21,0.917 ± 0.18,0.915 ± 0.16,0.881 ± 0.092,0.678 ± 0.091,0.909 ± 0.15,0.84 ± 0.055,1.26 ± 0.34,1.19 ± 0.013,1.09 ± 0.053,1 ± 0.1,1.13 ± 0.13,1.27 ± 0.15,1.65 ± 0.22,1.7 ± 0.078
SIHA CERVIX,1.05 ± 0.02,1.14 ± 0.048,1.07 ± 0.085,1.1 ± 0.017,0.8 ± 0.014,0.835 ± 0.034,0.787 ± 0.018,0.782 ± 0.014,0.908 ± 0.016,0.877 ± 0.034,0.909 ± 0.041,0.995 ± 0.034,0.993 ± 0.022,1.07 ± 0.068,1.06 ± 0.041,1.09 ± 0.055
SJSA1 BONE,1.62 ± 0.029,1.63 ± 0.05,1.61 ± 0.075,1.67 ± 0.14,1.7 ± 0.065,1.79 ± 0.12,1.64 ± 0.1,1.88 ± 0.062,0.89 ± 0.025,0.914 ± 0.026,0.904 ± 0.028,0.948 ± 0.025,1.03 ± 0.033,1.03 ± 0.062,0.998 ± 0.059,0.955 ± 0.074
SKBR3 BREAST,1.02 ± 0.024,1.11 ± 0.027,1.11 ± 0.1,1.04 ± 0.12,0.784 ± 0.13,0.629 ± 0.038,0.503 ± 0.1,0.512 ± 0.13,0.838 ± 0.027,0.81 ± 0.098,0.819 ± 0.14,0.813 ± 0.15,1.05 ± 0.12,1.01 ± 0.15,0.986 ± 0.17,0.892 ± 0.14
SNU475 LIVER,1.04 ± 0.056,1.05 ± 0.05,1.05 ± 0.018,0.924 ± 0.01,0.822 ± 0.13,0.854 ± 0.072,0.875 ± 0.047,0.843 ± 0.11,0.358 ± 0.028,0.806 ± 0.029,0.674 ± 0.01,0.808 ± 0.02,0.392 ± 0.029,0.919 ± 0.021,0.839 ± 0.024,1 ± 0.055
SUM44 BREAST,1.31 ± 0.48,1.29 ± 0.48,1.23 ± 0.36,1.23 ± 0.39,1.33 ± 0.5,1.17 ± 0.38,0.819 ± 0.25,0.802 ± 0.29,0.9 ± 0.025,0.868 ± 0.058,0.932 ± 0.011,0.969 ± 0.022,1.07 ± 0.072,1.02 ± 0.052,0.946 ± 0.045,0.92 ± 0.03
SUM149 BREAST,1.05 ± 0.075,1.13 ± 0.12,1.1 ± 0.087,1.06 ± 0.036,0.848 ± 0.074,0.751 ± 0.057,0.746 ± 0.027,0.781 ± 0.058,,,,0.827 ± 0.063,0.289 ± 0.02,0.991 ± 0.094,0.821 ± 0.05,0.919 ± 0.011
SUM149.B1*.S BREAST,1.09 ± 0.065,1.12 ± 0.042,1.06 ± 0.036,1.09 ± 0.041,0.854 ± 0.035,0.767 ± 0.052,0.716 ± 0.046,0.733 ± 0.0095,0.392 ± 0.028,0.793 ± 0.046,0.787 ± 0.036,0.8912 ± 0.0055,0.517 ± 0.056,0.968 ± 0.042,0.863 ± 0.038,1.02 ± 0.015
SUM159 BREAST,1.1 ± 0.027,1.09 ± 0.036,1.1 ± 0.049,1.09 ± 0.029,1.03 ± 0.038,0.951 ± 0.018,0.884 ± 0.013,0.897 ± 0.02,1.04 ± 0.28,1.08 ± 0.28,1.04 ± 0.21,1.08 ± 0.23,1.08 ± 0.25,1.1 ± 0.26,1.1 ± 0.24,1.11 ± 0.21
SYO1 SYNOVIAL,0.991 ± 0.03,0.983 ± 0.047,0.984 ± 0.041,0.991 ± 0.074,0.419 ± 0.024,0.285 ± 0.0055,0.284 ± 0.02,0.281 ± 0.011,0.336 ± 0.15,0.772 ± 0.089,0.658 ± 0.089,0.809 ± 0.043,0.408 ± 0.14,0.942 ± 0.017,0.865 ± 0.11,0.988 ± 0.061
T47D BREAST,1.12 ± 0.013,1.12 ± 0.073,1.07 ± 0.025,0.9393 ± 0.0076,0.562 ± 0.033,0.406 ± 0.065,0.33 ± 0.025,0.339 ± 0.024,0.81 ± 0.036,0.921 ± 0.0064,0.919 ± 0.043,0.953 ± 0.025,0.914 ± 0.015,1.04 ± 0.06,0.994 ± 0.021,1.01 ± 0.043
U2OS BONE,1 ± 0.045,1.02 ± 0.039,1.04 ± 0.051,0.31 ± 0.0076,0.672 ± 0.01,0.669 ± 0.014,0.636 ± 0.016,0.625 ± 0.026,0.914 ± 0.029,0.9627 ± 0.0058,0.949 ± 0.007,0.978 ± 0.035,1.06 ± 0.054,1.08 ± 0.059,1.07 ± 0.026,1.1 ± 0.039
VCAP PROSTATE,0.961 ± 0.06,0.984 ± 0.036,1.02 ± 0.094,1.07 ± 0.11,1.03 ± 0.079,1.07 ± 0.062,1.02 ± 0.078,1 ± 0.058,0.915 ± 0.03,0.942 ± 0.048,0.934 ± 0.031,0.986 ± 0.074,0.966 ± 0.01,1.11 ± 0.14,1.08 ± 0.061,1.07 ± 0.023
VP229 BREAST,1.13 ± 0.076,1.12 ± 0.15,1.14 ± 0.05,1.15 ± 0.13,1.25 ± 0.15,1.08 ± 0.12,1.12 ± 0.12,1.14 ± 0.053,0.861 ± 0.03,0.838 ± 0.056,0.861 ± 0.055,0.887 ± 0.019,1.03 ± 0.065,1.1 ± 0.068,1.248 ± 0.0097,1.25 ± 0.13
YAMATO SYNOVIAL,1.18 ± 0.13,1.05 ± 0.089,1.25 ± 0.17,0.532 ± 0.058,0.685 ± 0.065,0.587 ± 0.05,0.584 ± 0.046,0.604 ± 0.048,0.15 ± 0.019,0.825 ± 0.054,0.619 ± 0.023,0.919 ± 0.055,0.281 ± 0.024,1.28 ± 0.086,0.874 ± 0.083,1.24 ± 0.091
ZR751 BREAST,1 ± 0.11,1.1 ± 0.14,0.975 ± 0.057,1.29 ± 0.21,0.715 ± 0.077,0.69 ± 0.088,0.707 ± 0.044,0.741 ± 0.011,0.774 ± 0.021,0.834 ± 0.051,0.768 ± 0.062,0.811 ± 0.078,0.783 ± 0.08,0.826 ± 0.099,0.949 ± 0.086,0.947 ± 0.061
